Source: patent US4714698A, “8-alkylthio-2-piperazino-pyrimido[5,4-d]-pyrimidines” (Dr. Karl Thomae GmbH, priority 1984, dated 1987)

Key:
[1] = biological target: phosphodiesterase from human thrombocytes; assay: PDE inhibition (PDE assay), phosphodiesterase from human thrombocytes, 3H-cAMP substrate; type: biochemical; conditions: concentration which inhibited PDE activity by 50%, 1 μmol/l 3H-cAMP as substrate, read-out: PDE inhibition ED50, Human thrombocytes
Experimental: Phosphodiesterase was obtained from human thrombocytes by an analogous method.
(§1) The PDE inhibition by the test substances was determined using 1 μmol/1 of ^3 H-cAMP as substrate. The PDE inhibition was determined by measuring the degradation of the substrate ^3 H-cAMP used into ^3 H-AMP by comparison with the control without the test substance. The ^3 H-AMP formed was separated from the remaining ^3 H-cAMP by precipitation with zinc sulphate-barium hydroxide.
(§2) The ED50, i.e. the concentration which inhibited the PDE activity by 50%, was calculated by linear regression analysis.

[2] = system: phosphodiesterase from B16 melanoma tissue (B16 tumour cells); assay: PDE inhibition (PDE assay), phosphodiesterase from B16 melanoma tissue, 3H-cAMP substrate; type: biochemical, mice; conditions: concentration which inhibited PDE activity by 50%, 1 μmol/l 3H-cAMP as substrate, read-out: PDE inhibition ED50, B16 tumour cells
Experimental: The phosphodiesterase was obtained from B16 melanoma tissue from mice by centrifuging the homogenised tissue at 5000×g (15 minutes at 4° C.). The tissues were homogenized by repeated freezing and thawing and homogenisation according to Potter-Elvehjem or by ultrasound. The homogenised supernatant containing the PDE was deep frozen and stored in batches at -25° C.
as §1, §2

[3] = Tolerability / lethality in mice; type: in vivo; conditions: 10 animals
Source text: Moreover, the new compounds are well tolerated.

CSc1ncnc2c(N3CCCC3)nc(N3CCNCC3)nc12 [Substance A, 8-Methylthio-2-piperazino-4-pyrrolidino-pyrimido[5,4-d]pyrimidine]
IC50 [1]: 1600 nM
IC50 [2]: 66 nM
deaths of animals ([3]; 20 mg/kg i.v.): none of the 10 animals used died
deaths of animals ([3]; 100 mg/kg p.o.): none of the 10 animals used died

CCN(CC)c1nc(N2CCNCC2)nc2c(SC)ncnc12 [Substance B, 4-Diethylamino-8-methylthio-2-piperazino-pyrimido[5,4-d]pyrimidine]
IC50 [1]: 1300 nM
IC50 [2]: 37 nM

CCCCCCNc1nc(N2CCNCC2)nc2c(SC)ncnc12 [Substance C, 4-n-Hexylamino-8-methylthio-2-piperazino-pyrimido[5,4-d]pyrimidine]
IC50 [1]: 1200 nM
IC50 [2]: 120 nM

CSc1ncnc2c(N3CCCCCC3)nc(N3CCNCC3)nc12 [Substance D, 4-Hexamethyleneimino-8-methylthio-2-piperazinopyrimido[5,4-d]pyrimidine]
IC50 [1]: 1700 nM
IC50 [2]: 28 nM
